Among the data in PMC10815964, “Cyclobutanone Inhibitors of Diaminopimelate Desuccinylase (DapE) as Potential New Antibiotics” (International Journal of Molecular Sciences, 2024) are inhibition, IC50 and melting point values, retold here.

One series has as its target HiDapE (Haemophilus influenzae, UniProt P44514). The series can be described thus: DapE inhibition, ninhydrin-based assay. The class given is biochemical. The conditions noted are these: for inhibition at 100 µM: 100 µM inhibitor, read-out: DapE % Inhib at 100 µM; for IC50: ninhydrin assay. As to the method:
All compounds were screened for DapE inhibitory potency using a ninhydrin-based assay at 100 μM, and IC50 values were determined for molecules that inhibited DapE > 70% at 100 μM (Table 1). Some SAR trends emerge from the data.
Experimental IC50 curves for cyclobutanone inhibitors against DapE were identified as sigmoidal shaped response curves, as opposed to simple hyperbolic plots. […] IC50 curves with the corresponding Hill coefficients are reported in the Supplementary Materials as Figures S74−S81. Experimental Hill coefficients may provide information on the number of binding sites of a biological target (receptors and enzymes) interacting with ligands.
The inhibition of HiDapE by potential inhibitors was assessed using the previously developed ninhydrin assay with slight modifications. It was performed in a PCR Thermal Cycler System. All experiments were performed in triplicate in 50 mM HEPES buffer at pH 7.5. Reaction volumes were 100 µL of 2 mM N^6-Methyl-L,L-SDAP and 8 nM HiDapE. Ninhydrin was purchased as a 2% solution in 100% DMSO/lithium acetate buffer at pH 5.2. The inhibitor, followed by HiDapE, was added to a 50 mM HEPES (pH 7.5) buffered solution at 30 °C, and the mixture was incubated at 30 °C for 10 min. N^6-Methyl-L,L-SDAP was added, and the reaction mixture was incubated at 30 °C for 10 min, then heated to 99 °C for 1 min, and further cooled to 0 °C for 1 min. The 2% ninhydrin solution (50 µL) was added, and the mixture was thoroughly mixed. The reaction mixture was heated to 80 °C for 15 min, then cooled to 0 °C for 1 min. The absorbance of an 80 μL aliquot was recorded at 570 nm on a BioTek Synergy 2 microplate reader. All the inhibition assays of HiDapE were performed in triplicate and the IC50 values were obtained by fitting the data following the modified Hill equation: V = V0 + (Vmax − V0) XnH/(XnH0.5 + XnH) using the graphing suite Origin 9.1 with the Levenberg–Marquardt non-linear least-squares algorithm. The velocity in the absence of the substrate is […]; the velocity at saturating concentrations of the substrate or with no inhibitor for the inhibition assay is Vmax; X is the concentration of the substrate or inhibitor; and X0.5 is the substrate (S0.5) and inhibitor (I0.5) concentration at 50% maximum velocity and at 50% inhibition, respectively. The Hill coefficient is represented as nH.

Chain of HiDapE (P44514 whole entry): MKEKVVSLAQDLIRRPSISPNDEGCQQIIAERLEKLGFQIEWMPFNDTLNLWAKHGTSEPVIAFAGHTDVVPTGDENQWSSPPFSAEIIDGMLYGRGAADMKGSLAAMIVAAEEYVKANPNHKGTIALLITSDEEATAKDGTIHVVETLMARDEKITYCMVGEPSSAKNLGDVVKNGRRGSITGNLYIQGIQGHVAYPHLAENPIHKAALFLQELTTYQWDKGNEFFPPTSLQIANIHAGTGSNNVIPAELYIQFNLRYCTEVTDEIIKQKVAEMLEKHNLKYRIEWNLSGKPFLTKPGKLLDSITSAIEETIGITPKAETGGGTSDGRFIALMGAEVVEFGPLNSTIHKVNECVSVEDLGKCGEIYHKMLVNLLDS

Broadly, the IC50 is the concentration that gives 50% inhibition. For orientation: melting point means the temperature of the solid-liquid transition. `O=C(CCc1nc2ccccc2[nH]1)NC1CCC1=O` (stereo not shown) [3u] showed a melting point of 179 to 181 °C. At HiDapE, the inhibition at 100 µM amounted to 84.7% and the IC50 stood at 52.4 ± 7.4 µM.
`COc1ccc(C(=O)NC2CCC2=O)cc1Cl` (stereo not shown) [3g, 3-Chloro-4-methoxy-N-(2-oxocyclobutyl)benzamide] displayed a melting point of 134 to 136 °C. The inhibition at 100 µM on HiDapE amounted to 29.1%.
Regarding `Cc1ccc(S(=O)(=O)N[C@@H](Cc2ccccc2)C(=O)NC2CCC2=O)cc1` (mixture of isomers) [3v, (2S)-2-((4-Methylphenyl)sulfonamido)-N-(2-oxocyclobutyl)-3-phenylpropanamide], at HiDapE, the inhibition at 100 µM turned out to be 92.8% and the IC50 stood at 45.7 ± 1.5 µM.
For the compound `O=C(Cc1ccc(Br)cc1)NC1CCC1=O` (stereo not shown) [3t, 2-(4-Bromophenyl)-N-(2-oxocyclobutyl)acetamide], the melting point fell in the range of 124 to 127 °C. In addition, the inhibition at 100 µM on HiDapE is 59%.
As to `O=C1CCC1NS(=O)(=O)c1ccc(C(F)(F)F)cc1` (stereo not shown) [3ah, N-(2-Oxocyclobutyl)-4-(trifluoromethyl)benzenesulfonamide], the melting point was 74 to 76 °C. Also, the inhibition at 100 µM on HiDapE is 22.6%.
With `O=C(N[C@H](Cc1ccccc1)C(=O)NC1CCC1=O)OCc1ccccc1` (mixture of isomers) [3ae, Benzyl ((2R)-1-oxo-1-((2-oxocyclobutyl)amino)-3-phenylpropan-2-yl)carbamate], on HiDapE, the inhibition at 100 µM turned out to be 97.9% and the IC50 was 55.4 ± 5.5 µM.
As to `CC(C)[C@@H](NS(=O)(=O)c1ccc(O)cc1)C(=O)NC1CCC1=O` (mixture of isomers) [3ac, (2R)-2-((4-hydroxyphenyl)sulfonamido)-3-methyl-N-(2-oxocyclobutyl)butanamide], the melting point was in the range of 139 to 141 °C. On HiDapE, the inhibition at 100 µM was 44.4%.
For `O=C(NC1CCC1=O)c1ccncc1` (stereo not shown) [3p, N-(2-Oxocyclobutyl)isonicotinamide], in that order: 119 to 121 °C and less than 5%.
The like results for `O=C(NC1CCC1=O)c1cncc(Br)c1` (stereo not shown) [3o, 5-Bromo-N-(2-oxocyclobutyl)nicotinamide] were, in that order, 114 to 115 °C and 34.6%.
The like results for `O=C(NC1CCC1=O)c1cnc2ccccc2c1` (stereo not shown) [3q, N-(2-Oxocyclobutyl)quinoline-3-carboxamide] were, in that order, 155 to 156 °C and 48%.
As for `O=C(NC1CCC1=O)c1cccc(Cl)c1` (stereo not shown) [3e, 3-Chloro-N-(2-oxocyclobutyl)benzamide], the melting point was in the range of 64 to 66 °C. For the same compound, on HiDapE, the inhibition at 100 µM turned out to be 45.8%.
The like results for `COc1cccc(CC(=O)NC2CCC2=O)c1` (stereo not shown) [3s, 2-(3-Methoxyphenyl)-N-(2-oxocyclobutyl)acetamide] were, in that order, 104 to 105 °C and 27%.
Regarding `Cc1ccc(S(=O)(=O)N[C@H](Cc2ccccc2)C(=O)NC2CCC2=O)cc1` (mixture of isomers) [3w, (2R)-2-((4-Methylphenyl)sulfonamido)-N-(2-oxocyclobutyl)-3-phenylpropanamide], on HiDapE, the inhibition at 100 µM worked out at 55% and the IC50 is more than 50 µM.
Take `O=C(N[C@@H](Cc1ccccc1)C(=O)NC1CCC1=O)OCc1ccccc1` (mixture of isomers) [3ad, Benzyl ((2S)-1-oxo-1-((2-oxocyclobutyl)amino)-3-phenylpropan-2-yl)carbamate]: on HiDapE, the inhibition at 100 µM was found to be 96.2% and the IC50 was determined as 69.8 ± 1.4 µM.
The compound `Cc1ccc(C(=O)NC2CCC2=O)cc1` (stereo not shown) [3c, 4-Methyl-N-(2-oxocyclobutyl)benzamide] displayed a melting point of 149 to 150 °C. For the same compound, on HiDapE, the inhibition at 100 µM turned out to be 58.1%.
`O=C(N[C@@H](Cc1ccc(O)cc1)C(=O)NC1CCC1=O)OCc1ccccc1` (mixture of isomers) [3af, Benzyl ((2S)-3-(4-hydroxyphenyl)-1-oxo-1-((2-oxocyclobutyl)amino)propan-2-yl)carbamate]: the inhibition at 100 µM at HiDapE turned out to be 15.5%.
In the case of `O=C(NC1CCC1=O)c1cccnc1Cl` (stereo not shown) [3n, 2-Chloro-N-(2-oxocyclobutyl)nicotinamide], the melting point fell in the range of 80 to 82 °C. Moreover, the inhibition at 100 µM on HiDapE was less than 5%.
For `COC(=O)c1ccc(S(=O)(=O)N[C@@H](C(=O)NC2CCC2=O)C(C)C)cc1` (mixture of isomers) [3ab, Methyl 4-(N-((2R)-3-methyl-1-oxo-1-((2-oxocyclobutyl)amino)butan-2-yl)sulfamoyl)benzoate], in that order: 190 to 191 °C and 10.7%.
For `Cc1cccc(C(=O)NC2CCC2=O)c1` (stereo not shown) [3b, 3-Methyl-N-(2-oxocyclobutyl)benzamide], in that order: 94 to 96 °C and 37.8%.
`COc1ccc(C(=O)NC2CCC2=O)c(O)c1` (stereo not shown) [3j, 2-Hydroxy-4-methoxy-N-(2-oxocyclobutyl)benzamide] returned a melting point of 131 to 133 °C. In addition, at HiDapE, the inhibition at 100 µM was 73% and the IC50 was found to be 66.4 ± 2.9 µM.
For `COc1cc(C(=O)NC2CCC2=O)cc(OC)c1OC` (stereo not shown) [3k, 3,4,5-Trimethoxy-N-(2-oxocyclobutyl)benzamide], in that order: 144 to 146 °C, 93.7% and 39.6 ± 2.9 µM.
For the compound `O=C(NC1CCC1=O)c1ccccn1` (stereo not shown) [3l, N-(2-Oxocyclobutyl)picolinamide], the melting point lay in the range of 97 to 99 °C. Moreover, the inhibition at 100 µM on HiDapE was found to be 25.6%.
Regarding `Cc1ccc(S(=O)(=O)N[C@@H](Cc2ccccc2)C(=O)NCC(C)(C)O)cc1` [4b, (S)-N-(2-hydroxy-2-methylpropyl)-2-((4-methylphenyl)sulfonamido)-3-phenylpropanamide], the inhibition at 100 µM on HiDapE is 19.1%.
In the case of `O=C(NC1CCC1=O)c1ccccc1O` (stereo not shown) [3i, 2-Hydroxy-N-(2-oxocyclobutyl)benzamide], the melting point fell in the range of 149 to 151 °C. For the same compound, the inhibition at 100 µM on HiDapE was determined as 28.9%.
For `COc1ccc(S(=O)(=O)N[C@H](C(=O)NC2CCC2=O)C(C)C)cc1` (mixture of isomers) [3z, (2S)-2-((4-Methoxyphenyl)sulfonamido)-3-methyl-N-(2-oxocyclobutyl)butanamide], in that order: 179 to 181 °C and 30.7%.
On to `O=C1CCC1NS(=O)(=O)c1ccc(F)cc1` (stereo not shown) [3ai, N-(2-Oxocyclobutyl)-4-(fluoro)benzenesulfonamide], for which, on HiDapE, the inhibition at 100 µM worked out at 72.9% and the IC50 was 53.3 ± 5.4 µM.
With `O=C(NC1CCC1=O)c1ccccc1Cl` (stereo not shown) [3d, 2-Chloro-N-(2-oxocyclobutyl)benzamide], the melting point was 102 to 103 °C. Besides, the inhibition at 100 µM on HiDapE is 33.6%.
For `Cc1ccc(S(=O)(=O)N[C@@H](Cc2ccccc2)C(=O)NCC2(O)CC2)cc1` [4a, (S)-N-((1-hydroxycyclopropyl)methyl)-2-((4-methylphenyl)sulfonamido)-3-phenylpropanamide], at HiDapE, the inhibition at 100 µM amounted to 36.4%.
Compound `CC(C)[C@@H](NS(=O)(=O)c1ccc(C#N)cc1)C(=O)NC1CCC1=O` (mixture of isomers) [3aa, (2R)-2-((4-Cyanophenyl)sulfonamido)-3-methyl-N-(2-oxocyclobutyl)butanamide] showed a melting point of 150 to 151 °C. The inhibition at 100 µM at HiDapE came out at 5.6%.
As for `Cc1ccc(S(=O)(=O)N[C@@H](Cc2c[nH]c3ccccc23)C(=O)NC2CCC2=O)cc1` (mixture of isomers) [3x, (2S)-3-(1H-Indol-3-yl)-2-((4-methylphenyl)sulfonamido)-N-(2-oxocyclobutyl)propanamide], at HiDapE, the inhibition at 100 µM was 19.6%.
Still for that read-out and setting: to `O=C(NC1CCC1=O)c1cccnc1` (stereo not shown) [3m, N-(2-Oxocyclobutyl)nicotinamide] belongs 24.9%.
`Cc1ccccc1C(=O)NC1CCC1=O` (stereo not shown) [3a, 2-Methyl-N-(2-oxocyclobutyl)benzamide] showed a melting point of 100 to 102 °C. The inhibition at 100 µM on HiDapE was 16.8%.
The like results for `O=C(NC1CCC1=O)c1cccc2cccnc12` (stereo not shown) [3r, N-(2-Oxocyclobutyl)quinoline-8-carboxamide] were, in that order, 89 to 91 °C and less than 5%.
Turning to `CC(C)[C@H](NC(=O)OCc1ccccc1)C(=O)NC1CCC1=O` (mixture of isomers) [3ag, Benzyl ((2S)-3-methyl-1-oxo-1-((2-oxocyclobutyl)amino)butan-2-yl)carbamate], on HiDapE, the inhibition at 100 µM is 53.9%.
Compound `COc1cc(Cl)c(C(=O)NC2CCC2=O)cc1OC` (stereo not shown) [3h, 2-Chloro-4,5-dimethoxy-N-(2-oxocyclobutyl)benzamide] displayed a melting point of 123 to 125 °C. Besides, on HiDapE, the inhibition at 100 µM was 24.4%.
